3 molecules from US9572821B2, “Pharmaceutical compositions for preventing and treating eye pathologies” (MITOTECH SA, priority 2006, dated 2017) can be followed below.

What all share (format): in vivo, rat
Test [1] relates to macular dystrophy in OXYS rats. Kind of test: Prophylactic effect on macular dystrophy (changes in macular area of retina), ophthalmoscopic examination of OXYS rats. The conditions noted are these: for 2nd stage of macular degeneration: KBr: % of these changes; for changes in the macular area of the retina (macular dystrophy morbidity): after oral course from 1.5 to 3 months, % of eyes/cases; for changes in the macular area of the retina (macular dystrophy morbidity) / macular dystrophy newly affected during the course (10% already affected at 1.5 months): SkQ1 or KBr 50 nmol per kg. As for the experimental part: (§1) The study was carried out using OXYS and Wistar male rats. The animals were housed in cages (five rats per a cage) and kept under standard laboratory conditions (at 22±1° C., 60% relative humidity, and natural light), provided with a standard rodent diet (PK-120-1, Ltd. ‘Laboratorsnab’, Russia), and given water ad libitum. At the age of 1.5 months after preliminary pupil dilation with 1% tropicamide ophthalmic the rats were examined by ophthalmologist. During the period from 1.5 to 3 months, which is critical for the development of pronounced changes in eye organ of OXYS rats, the animals were given either SkQ1 (50 nmol per kg of body weight), or KBr (50 nmol per kg of body weight) or vitamin E (alfa-tocopherol acetate, 20 mg per kg). We use Vitamin E for a comparison with test antioxidants. Animals received the compounds on a small piece of dried bread before a regular meal, and the control group of animals received the same piece of bread without any compound. After completing the course of antioxidants the animals were weighed and retested with ophthalmoscope. To avoid human factor in the evaluation of compound effects, the researcher who conducted the ophthalmoscopic examination was not told which of the animals received antioxidants.
(§2) The ophthalmoscopic examination was carried out using direct ophthalmoscope “Betta”, Germany. In selected animals under fluorotane narcosis (1-1.5 minutes) eyeground was photographed, fluorescent angiography with the use of “Opton” fundus-camera was conducted or crystalline lenses were examined by means of slitlamp “Opton SL30” using system of automatic image registration (biomicroscopic research).
(§3) The lens state was evaluated according to the classification system accepted in clinical practice (L. A. Katsnelson, T. I. Forofonova, A. Ya. Bunin, 1990) with grades ranging from 0 to 3: score 0—the lens is clear; score 1—spotted weak cloudiness; score 2—multiple spots of cloudiness and score 3—intense cloudiness of the lens core and nucleus. The presence and the degree of spotted changes in macular area were evaluated according to accepted classification: score 0—no changes; score 1—the 1st stage of pathology, when small yellow deposits, known as “drusen” appear underneath the macula; score 2—2nd stage, the development of prominent yellow spot with sharp edges with the size of 0.5 to 1 of the disk diameter (exudative detachment of pigment retinal epithelium); and score 3—3rd stage with extensive hemorrhage into macular area.
(§4) Statistical processing of the results was carried out using the factorial dispersive analysis (ANOVA/MANOVA, Statistica, 5) with post hoc comparison of group average (Newman-Keul test) considering genotype and preparation as independent factors.

The test system of the next test is retina of Wistar rats. Kind of test: Therapeutic experiment, macular area of retina, Wistar rats aged 10.5 months. The note with it: for Changes of macular area of retina, grades (score): Wistar rats, examination after therapy course at the age of 12 months, 50 nmol per kg of body weight, score 0-3. The method, then:
as §1, with “by ophthalmologist. […], which is” for “by ophthalmologist. During the period from 1.5 to 3 months, which is”, “received antioxidants. […]” for “received antioxidants.”
(§5) The lens state was evaluated according to the classification system accepted in clinical practice (L. A. Katsnelson, T. I. Forofonova, A. Ya. Bunin, 1990) with grades ranging from 0 to 3: score 0—the lens is clear; score 1—spotted weak cloudiness; score 2—multiple spots of cloudiness and score 3—intense cloudiness of the lens core and nucleus. The presence and the degree of spotted changes in macular area were evaluated according to accepted classification: score 0—no changes; score 1—the 1st stage of pathology, when small yellow deposits, known as “drusen” appear underneath the macula; score 2—2nd stage, the development of prominent yellow spot with sharp edges with the size of 0.5 to 1 of the disk diameter (exudative detachment of pigment retinal epithelium); and score 3—3rd stage with extensive hemorrhage into macular area. […]

Test [2] relates to cataract in OXYS rats. Briefly: Therapeutic effect on state of crystalline lenses, OXYS rats aged 10.5 months. The note with it: for pathological changes of lenses, before vs after the therapy course: 10.5 to 12 months, pair comparisons / comparison of average values; for Changes of lenses, grades (score): examination after therapy course at the age of 12 months, 50 nmol per kg of body weight, score 0-3. As for the experimental part:
as §1, with “[…],” for “During the period from 1.5 to 3 months,”
as §2, §3, §4

In a further test the test system is lenses of Wistar rats. Kind of test: Therapeutic experiment, state of crystalline lenses, Wistar rats aged 10.5 months. The note with it: examination after therapy course at the age of 12 months, 50 nmol per kg of body weight, score 0-3. As for the experimental part:
The study was carried out using OXYS and Wistar male rats. The animals were housed in cages (five rats per a cage) and kept under standard laboratory conditions (at 22±1° C., 60% relative humidity, and natural light), provided with a standard rodent diet (PK-120-1, Ltd. ‘Laboratorsnab’, Russia), and given water ad libitum. At the age of 1.5 months after preliminary pupil dilation with 1% tropicamide ophthalmic the rats were examined by ophthalmologist. […]
as §5

Test [3] concerns cataract in OXYS rats. Briefly: Prophylactic effect on cataract (lens changes), ophthalmoscopic examination of OXYS rats. The conditions noted are these: for 2nd stage of cataract: KBr: % of total number of eyes, vitamin E: % of changes; for lens changes observed/registered (cataract morbidity): after oral course from 1.5 to 3 months, % of eyes/cases; for lens changes observed/registered (cataract morbidity) / cataract newly affected/added during the course (20% of eyes already affected at 1.5 months): SkQ1 or KBr 50 nmol per kg. The method, then: as §1, §2, §3, §4

The test system of test [4] is macular dystrophy (retinopathy) in OXYS rats. Kind of test: Therapeutic effect on macular area of retina, OXYS rats aged 10.5 months. The conditions noted are these: for pathological changes of retina, before vs after the therapy course / Changes of macular area of retina, grades (score): OXYS rats; for pathological changes of retina, before vs after the therapy course: 10.5 to 12 months, pair comparisons / comparison of average values; for Changes of macular area of retina, grades (score): examination after therapy course at the age of 12 months, 50 nmol per kg of body weight, score 0-3. The method, then:
as §1, with “During the period from 1.5 to 3 months, which is critical for the development of pronounced changes in eye organ of OXYS rats, the animals were given either SkQ1 (50 nmol per kg of body weight), or KBr (50 nmol per kg of body weight) or vitamin E (alfa-tocopherol acetate, 20 mg per kg).” left out
as §2, §3, §4

Where [5] appears, read: OXYS rats at 3 months, after course from 1.5 to 3 months.
[6] abbreviates: OXYS rats at 3 months, vitamin E 20 mg per kg.
Setting [7] is: OXYS rats, 1.5 to 3 months, vitamin E 20 mg per kg.
[8] abbreviates: OXYS rats at 3 months, after course from 1.5 to 3 months, SkQ1 50 nmol per kg.
[9] abbreviates: OXYS rats, 1.5 to 3 months, SkQ1 50 nmol per kg.
[10] abbreviates: one month after the end of SkQ1 administration, in contrast to the control group.
[11] abbreviates: OXYS rats after SkQ1 therapy course.

`[Br-].[K+]` [KBr, reference compound]: the “2nd stage of macular degeneration” value in test [1] (setting [5]) is recorded as 13%. Also, the “changes in the macular area of the retina (macular dystrophy morbidity)” value (shortened to “changes in the macular area”) in test [1] (setting [6]) is given as 87%. Besides, in test [1] (OXYS rats, 1.5 to 3 months), the “macular dystrophy newly affected during the course (10% already affected at 1.5 months)” value was found to be 77%. Also, the “Changes of macular area of retina, grades (score)” value (“Changes of macular area of retina” for short) with retina of Wistar rats amounted to 0.25 ± 0.10 score; in test [4] it was 1.13 ± 0.17 score. Further, the “pathological changes of lenses, before vs after the therapy course” value in the test on cataract in OXYS rats [2] is “authentically aggravated”. Also, the figures for the “Changes of lenses, grades (score)” value in the test with cataract in OXYS rats [2] and in the test with lenses of Wistar rats were 1.6 ± 0.23 score and 0.5 ± 0.15 score, respectively. Moreover, the “2nd stage of cataract” value with cataract in OXYS rats [3] (setting [5]) came to 57%. Besides, the “lens changes observed/registered (cataract morbidity)” value (from here on “lens changes observed/registered”) with cataract in OXYS rats [3] (setting [6]) is given as 93%. Besides, the “cataract newly affected/added during the course (20% of eyes already affected at 1.5 months)” value with cataract in OXYS rats [3] (setting [7]) was 73%. The “pathological changes of retina, before vs after the therapy course” value in test [4] is on record as “no any changes”.

On to `CC1=C(C)C(=O)C(CCCCCCCCCC[P+](c2ccccc2)(c2ccccc2)c2ccccc2)=CC1=O.[Br-]` [SkQ1], for which the “stage to which the macular changes corresponded” value in test [1] (setting [8]) was 1st stage of macular degeneration. The “changes in the macular area” value in test [1] (setting [6]) came to 38%. Moreover, the “macular dystrophy cases, times less than in the control group” value in test [1] (setting [9]) stood at 2.8 times. Also, the “macular dystrophy newly affected during the course (10% already affected at 1.5 months)” value in test [1] (OXYS rats, 1.5 to 3 months) is given as 28%. For the same molecule, the “effect on macular dystrophy progression” value in test [1] (OXYS rats, FIG. 4) is listed as “essentially affected their progression”. Moreover, in test [1] (setting [10]), the “changes in the state of retina after the end of the course” value was “no any changes”. For the same molecule, the “animals with changes of retina appropriate to even the most initial stage of disease” value in the test with retina of Wistar rats (Wistar rats supplemented with SkQ1, after 45 days) is given as “practically absent”. The “Changes of macular area of retina” value with retina of Wistar rats is 0.09 ± 0.06 score. Further, in the test with cataract in OXYS rats [2], the “pathological changes of lenses, before vs after the therapy course” value is “much less pronounced” and the “Changes of lenses, grades (score)” value worked out at 0.41 ± 0.13 score. Further, the “Changes of lenses, grades (score)” value in the test on lenses of Wistar rats is reported as 0.54 ± 0.14 score. Also, the “stage to which the lens changes corresponded” value in the test with cataract in OXYS rats [3] (setting [8]) was 1st stage of cataract. The “lens changes observed/registered” value with cataract in OXYS rats [3] (setting [6]) is reported as 46%. Besides, the “cataract cases, times less than in the group supplemented with KBr” value with cataract in OXYS rats [3] (setting [9]) was found to be 2.8 times. In addition, the “cataract newly affected/added during the course (20% of eyes already affected at 1.5 months)” value with cataract in OXYS rats [3] (setting [7]) is on record as 26%. Moreover, the “effect on cataract progression” value in the test on cataract in OXYS rats [3] (OXYS rats, FIG. 3) was “essentially affected their progression”. Besides, the “changes in the state of crystalline lens after the end of the course” value in the test with cataract in OXYS rats [3] (setting [10]) was “no any changes”. Further, in test [4] (setting [11]), the hemorrhages in retina entry is “resolution of hemorrhages”; the “ischemic centers in retina” value was “reduction of quantity and area of ischemic centers”; the puffiness of retina result is given as “significant reduction of puffiness”. In test [4], the “pathological changes of retina, before vs after the therapy course” value is given as “much less pronounced” and the “Changes of macular area of retina” value stood at 0.32 ± 0.13 score.

`CC(=O)Oc1c(C)c(C)c2c(c1C)CCC(C)(CCC[C@H](C)CCC[C@H](C)CCCC(C)C)O2` (some centres unmarked) [vitamin E, alfa-tocopherol acetate]: the “2nd stage of macular degeneration” value in test [1] (setting [5]) worked out at 8%. Moreover, the “changes in the macular area” value in test [1] (setting [6]) was 54%. Also, the “macular changes, times less than in the control intact group” value in test [1] (setting [7]) was 1.5 times. Also, the “2nd stage of cataract” value in the test on cataract in OXYS rats [3] (setting [5]) was determined as 12%. In the test on cataract in OXYS rats [3] (setting [6]), the “lens changes observed/registered” value is given as 58%. In the test with cataract in OXYS rats [3] (setting [7]), the “cataract cases, times less than in the control intact group” value worked out at 1.8 times and the “cataract newly affected/added during the course (20% of eyes already affected at 1.5 months)” value is on record as 38%.
